pKi: −log10 of the molar value.
Each compound was assayed against T1, hα4 and β1 integrins (VLA-4) (Homo sapiens, UniProt P05556+P13612) (assay: In vitro evaluation: inhibition of binding of CHO cells expressing hα4 and β1 integrins to Eu3+-hVCAM-1 D1D7-IgG). Settings: ligand Eu3+-hVCAM-1 D1D7-IgG 2 nM, Ki calculated from IC50.
T1 construct: expressed in transfected cells; host or cells: CHO cells
Protocol: CHO cells which were forced to be expressed by transduction of hα4 and β1 integrins are seeded (3×10^4 cells/100 μl/well) on a Costar 3599 plate, and cultured for 2 days. A medium is washed with a buffer A* two times, and Eu^3+-hVCAM-1 D1D7-IgG which was diluted with an assay buffer A** to 2 nM is added at 50 μl/well. A test substance which was diluted with 2% DMSO-assay buffer (in the presence or the absence of 6% human serum albumin) is added at 50 μl/well (A solution which was separately diluted is added to a well in which Scatchard analysis is performed), this is stirred with a plate mixer for 5 minutes, and allowed to stand at room temperature for 1 hour. Thereafter, this is washed with a buffer A four times, a potentiating reagent (manufactured by DELFIA) is added at 100 μl/well, this is shaken for 5 minutes using a plate mixer, and a fluorescence intensity is measured with a time-resolved fluorometer (DELFIA Wallac). IC50 (concentration at which binding of CHO cell and Eu^3+-hVCAM-1 D1D7-IgG is inhibited by 50%) of a test substance is obtained from an integration rate obtained from a calculation equation: [(FT−FNS)−(FI−FNS)]/[(FT−FNS)]×100, wherein FT indicates a fluorescence intensity of a well not containing a test substance, FNS indicates a fluorescence intensity of a well not containing a test substance and hVCAM-1 D1D7-IgG, and FI indicates a fluorescence intensity containing a test substance. A Kd value showing strength of binding and Bmax (maximum binding amount) were presumed in a range of 0.06 to 20 nM according to the Scachard analysis method. [formula]
A Ki value was calculated according to the above equation ([L] is ligand concentration)
[* buffer A: 25 mM HEPES (pH 7.5), 150 mM NaCl, 1 mM Ca^2+, 1 mM Mg^2+, 4 mM Mn^2+; ** assay buffer: 25 mM HEPES (pH 7.5), 150 mM NaCl, 1 mM Ca^2+, 1 mM Mg^2+, 4 mM Mn^2+, 0.1% BSA, 20 μM DTPA, with/without 6% ALBUMIN, HUMAN SERUM (C/NA-1653, SIGMA)]

T1 sequence (P13612 34-1032): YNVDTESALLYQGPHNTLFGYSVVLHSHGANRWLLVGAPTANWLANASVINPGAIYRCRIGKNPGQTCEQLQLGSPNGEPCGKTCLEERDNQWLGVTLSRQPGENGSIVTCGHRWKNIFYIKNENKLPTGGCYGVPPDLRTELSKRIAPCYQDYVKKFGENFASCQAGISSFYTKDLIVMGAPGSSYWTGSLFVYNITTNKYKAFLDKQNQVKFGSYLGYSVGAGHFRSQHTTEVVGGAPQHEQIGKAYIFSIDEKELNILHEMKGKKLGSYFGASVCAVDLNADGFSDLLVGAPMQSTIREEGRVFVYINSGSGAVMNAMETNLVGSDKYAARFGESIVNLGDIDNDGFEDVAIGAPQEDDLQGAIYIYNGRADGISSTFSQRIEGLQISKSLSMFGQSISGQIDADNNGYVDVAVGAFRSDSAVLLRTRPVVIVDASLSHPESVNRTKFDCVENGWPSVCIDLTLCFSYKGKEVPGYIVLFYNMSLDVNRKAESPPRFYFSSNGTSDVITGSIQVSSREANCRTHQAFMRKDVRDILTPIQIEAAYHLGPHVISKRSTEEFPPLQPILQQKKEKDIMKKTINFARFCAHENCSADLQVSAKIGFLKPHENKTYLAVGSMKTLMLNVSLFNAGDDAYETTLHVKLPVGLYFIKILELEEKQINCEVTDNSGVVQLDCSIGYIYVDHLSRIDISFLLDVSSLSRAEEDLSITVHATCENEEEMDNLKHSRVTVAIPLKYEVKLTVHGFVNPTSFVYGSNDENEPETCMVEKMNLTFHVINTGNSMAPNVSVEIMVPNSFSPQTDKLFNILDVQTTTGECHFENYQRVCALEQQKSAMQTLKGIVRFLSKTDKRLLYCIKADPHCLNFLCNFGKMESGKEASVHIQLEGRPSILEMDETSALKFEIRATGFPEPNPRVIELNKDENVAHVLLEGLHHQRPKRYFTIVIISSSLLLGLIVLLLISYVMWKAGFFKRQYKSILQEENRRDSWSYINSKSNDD
T1 sequence (P05556 21-798): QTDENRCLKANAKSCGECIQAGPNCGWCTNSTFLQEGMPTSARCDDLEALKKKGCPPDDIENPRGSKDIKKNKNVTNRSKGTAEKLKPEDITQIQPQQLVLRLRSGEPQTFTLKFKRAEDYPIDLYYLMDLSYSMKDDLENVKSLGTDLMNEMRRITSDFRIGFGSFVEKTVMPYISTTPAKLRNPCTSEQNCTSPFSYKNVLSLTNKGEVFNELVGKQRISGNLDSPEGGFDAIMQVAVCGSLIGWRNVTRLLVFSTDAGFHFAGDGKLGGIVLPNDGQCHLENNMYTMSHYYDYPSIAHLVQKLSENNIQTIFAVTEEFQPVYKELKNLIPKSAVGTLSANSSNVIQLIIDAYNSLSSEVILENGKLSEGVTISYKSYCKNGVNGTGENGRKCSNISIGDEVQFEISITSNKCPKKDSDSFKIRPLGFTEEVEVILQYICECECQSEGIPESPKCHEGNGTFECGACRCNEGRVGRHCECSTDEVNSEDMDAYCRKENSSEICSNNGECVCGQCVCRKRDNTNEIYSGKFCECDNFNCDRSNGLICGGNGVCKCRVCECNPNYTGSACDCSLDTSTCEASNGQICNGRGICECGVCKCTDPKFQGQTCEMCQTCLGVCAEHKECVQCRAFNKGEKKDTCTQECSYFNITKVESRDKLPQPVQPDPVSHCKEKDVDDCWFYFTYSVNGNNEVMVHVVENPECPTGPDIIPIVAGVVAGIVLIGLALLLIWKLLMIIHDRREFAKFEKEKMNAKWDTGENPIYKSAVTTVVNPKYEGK

pKi	SMILES
8.16	CO[C@H]1C[C@@H](c2ncc(CCC(=O)O)s2)N(C(=O)Cc2ccc(Nc3nc4c(Cl)cccc4s3)c(Cl)c2)C1 [Example 114, 3-[2-[1-[4-(4-Chloro-2-benzothiazolyl)amino-3-chlorophenyl]acetyl-(4S)-methoxy-(2S)-pyrrolidinyl]-5-thiazolyl]propionic acid]
8.08	CCO[C@H]1CCN(C(=O)Cc2cc(Cl)c(Nc3nc4ccccc4s3)cc2Cl)[C@@H]1c1ncc(CCC(=O)O)s1 [Example 115, 3-[2-[1-[4-(2-Benzothiazolyl)amino-2,5-dichlorophenyl]acetyl-(3S)-ethoxy-(2S)-pyrrolidinyl]-5-thiazolyl]propionic acid]
7.40	O=C(O)CCc1cnc([C@@H]2[C@@H](O)CCN2C(=O)Cc2ccc(Nc3nc4ccccc4o3)c(Cl)c2)s1 [Example 116, 3-[2-[1-[4-(2-Benzoxazolyl)amino-3-chlorophenyl]acetyl-(3S)-hydroxy-(2S)-pyrrolidinyl]-5-thiazolyl]propionic acid]
7.46	O=C(O)CCc1cnc([C@@H]2[C@@H](O)CCN2C(=O)Cc2cc(Cl)c(Nc3nc4ccccc4o3)cc2F)s1 [Example 117, 3-[2-[1-[4-(2-Benzoxazolyl)amino-5-chloro-2-fluorophenyl]acetyl-(3S)-hydroxy-(2S)-pyrrolidinyl]-5-thiazolyl]propionic acid]
7.44	O=C(O)CCc1cnc([C@@H]2[C@@H](O)CCN2C(=O)Cc2cc(Cl)c(Nc3nc4ccccc4o3)cc2Cl)s1 [Example 118, 3-[2-[1-[4-(2-Benzoxazolyl)amino-2,5-dichlorophenyl]acetyl-(3S)-hydroxy-(2S)-pyrrolidinyl]-5-thiazolyl]propionic acid]
8.80	O=C(O)CCc1cnc([C@@H]2[C@@H](O)CCN2C(=O)Cc2cc(Cl)c(NC(=O)c3csc4ccccc34)cc2F)s1 [Example 122]
8.46	O=C(O)CCc1cnc([C@@H]2[C@@H](O)CCN2C(=O)Cc2cc(Cl)c(NC(=O)c3csc4ccccc34)cc2Cl)s1 [Example 123]
7.12	CO[C@@H]1C[C@@H](c2ncc(CCC(=O)O)s2)N(C(=O)Cc2cc(Cl)c(Nc3nc4ccccc4o3)cc2Cl)C1 [Example 124, 3-[2-[1-[4-(2-Benzoxazolyl)amino-2,5-dichlorophenyl]acetyl-(4R)-methoxy-(2S)-pyrrolidinyl]-5-thiazolyl]propionic acid]
7.96	CO[C@@H]1C[C@@H](c2ncc(CCC(=O)O)s2)N(C(=O)Cc2cc(Cl)c(Nc3nc4ccccc4s3)cc2Cl)C1 [Example 125]
7.72	O=C(O)CCn1nnc([C@@H]2CCCN2C(=O)Cc2cc(Cl)c(NC(=O)c3csc4ccccc34)cc2F)n1 [Example 126, 3-[5-[1-[[4-[(3-Benzo[b]thiophenylcarbonyl)amino]-5-chloro-2-fluorophenyl]acetyl]-(2S)-pyrrolidinyl]-2H-tetrazol-2-yl]propionic acid]
8.35	CON(C)[C@H]1C[C@@H](c2ncc(CCC(=O)O)s2)N(C(=O)Cc2cc(Cl)c(NC(=O)c3cn(C)c4ccccc34)cc2F)C1 [Example 127, 3-[2-[1-[5-Chloro-2-fluoro-4-(1-methyl-3-indolylcarbonylamino)phenylacetyl]-(4S)—N,O-dimethylhydroxylamino-(2S)-pyrrolidinyl]-5-thiazolyl]propionic acid]
8.17	CON(C)[C@H]1C[C@@H](c2ncc(CCC(=O)O)s2)N(C(=O)Cc2cc(Cl)c(NC(=O)c3cn(C)c4ccccc34)cc2Cl)C1 [Example 128, 3-[3-[1-[2,5-Dichloro-4-(1-methyl-3-indolylcarbonylamino)phenylacetyl]-(4S)—N,O-dimethylhydroxylamino-(2S)-pyrrolidinyl]-5-thiazolyl]propionic acid]
8.62	CON(C)[C@H]1C[C@@H](c2ncc(CCC(=O)O)s2)N(C(=O)Cc2cc(Cl)c(NC(=O)c3csc4ccccc34)cc2F)C1 [Example 129, 3-[2-[1-[4-(3-Benzo[b]thiophenylcarbonylamino)-5-chloro-2-fluorophenylacetyl]-(4S)—N,O-dimethylhydroxylamino-(2S)-pyrrolidinyl]-5-thiazolyl]propionic acid]

Continued, compound first:

SMILES	pKi
Cc1ccc(F)cc1Nc1nc2ccc(CC(=O)N3[C@H](c4ncc(CCC(=O)O)s4)C[C@@H]4CCCC[C@@H]43)c(F)c2o1 [Example 62, 3-[2-[1-[7-Fluoro-2-(5-fluoro-2-methylphenyl)amino-6-benzoxazolylacetyl]-(2S)-octahydroindolyl]-5-thiazolyl]propionic acid]	8.64
CCO[C@H]1CCN(C(=O)Cc2cc(Cl)c(NC(=O)c3cn(C)c4ccccc34)cc2F)[C@@H]1c1ncc(CCC(=O)O)s1 [Example 91, 3-[2-[1-[[5-Chloro-2-fluoro-4-(1-methyl-3-indolylcarbonylamino)phenyl]acetyl]-(3S)-ethoxy-(2S)-pyrrolidinyl]-5-thiazolyl]propionic acid]	8.39
CCO[C@H]1CCN(C(=O)Cc2cc(Cl)c(NC(=O)c3cn(C)c4ccccc34)cc2Cl)[C@@H]1c1ncc(CCC(=O)O)s1 [Example 92, 3-[2-[1-[[2,5-Dichloro-4-(1-methyl-3-indolylcarbonylamino)phenyl]acetyl]-(3S)-ethoxy-(2S)-pyrrolidinyl]-5-thiazolyl]propionic acid]	8.00
CCO[C@H]1CCN(C(=O)Cc2cc(Cl)c(NC(=O)c3csc4ccccc34)cc2F)[C@@H]1c1ncc(CCC(=O)O)s1 [Example 93]	8.54
CCO[C@H]1CCN(C(=O)Cc2cc(Cl)c(NC(=O)c3csc4ccccc34)cc2Cl)[C@@H]1c1ncc(CCC(=O)O)s1 [Example 94]	8.21
CCO[C@H]1CCN(C(=O)Cc2cc(Cl)c(NC(=O)c3coc4ccccc34)cc2F)[C@@H]1c1ncc(CCC(=O)O)s1 [Example 95]	8.38
CCO[C@H]1CCN(C(=O)Cc2cc(Cl)c(NC(=O)c3coc4ccccc34)cc2Cl)[C@@H]1c1ncc(CCC(=O)O)s1 [Example 96]	8.19
CCO[C@H]1CCN(C(=O)Cc2cc(Cl)c(NC(=O)c3cn(C)c4ccccc34)cc2F)[C@@H]1c1ncc(CCC(=O)O)o1 [Example 97, 3-[2-[1-[[5-Chloro-2-fluoro-4-(1-methyl-3-indolylcarbonylamino)phenyl]acetyl]-(3S)-ethoxy-(2S)-pyrrolidinyl]-5-oxazolyl]propionic acid]	8.04
CCO[C@H]1CCN(C(=O)Cc2cc(Cl)c(NC(=O)c3cn(C)c4ccccc34)cc2Cl)[C@@H]1c1ncc(CCC(=O)O)o1 [Example 98, 3-[2-[1-[[2,5-Dichloro-4-(1-methyl-3-indolylcarbonylamino)phenyl]acetyl]-(3S)-ethoxy-(2S)-pyrrolidinyl]-5-oxazolyl]propionic acid]	7.96
CCO[C@H]1CCN(C(=O)Cc2cc(Cl)c(NC(=O)c3csc4ccccc34)cc2Cl)[C@@H]1c1ncc(CCC(=O)O)o1 [Example 100]	8.11
CCO[C@H]1CCN(C(=O)Cc2cc(Cl)c(NC(=O)c3coc4ccccc34)cc2F)[C@@H]1c1ncc(CCC(=O)O)o1 [Example 101]	8.01
CCO[C@H]1CCN(C(=O)Cc2cc(Cl)c(NC(=O)c3coc4ccccc34)cc2Cl)[C@@H]1c1ncc(CCC(=O)O)o1 [Example 102]	7.77
CCO[C@H]1CCN(C(=O)Cc2ccc3nc(Nc4cc(F)ccc4C)oc3c2F)[C@@H]1c1ncc(CCC(=O)O)o1 [Example 103, 3-[2-[1-[[7-Fluoro-2-(5-fluoro-2-methylphenyl)amino-6-benzoxazolyl]acetyl]-(3S)-ethoxy-(2S)-pyrrolidinyl]-5-oxazolyl]propionic acid]	8.59
CCO[C@H]1CCN(C(=O)Cc2ccc3nc(Nc4ccccc4C)oc3c2)[C@@H]1c1ncc(CCC(=O)O)o1 [Example 104, 3-[2-[1-[[2-(2-Methylphenyl)amino-6-benzoxazolyl]acetyl]-(3S)-ethoxy-(2S)-pyrrolidinyl]-5-oxazolyl]propionic acid]	8.35
CCO[C@H]1CCN(C(=O)Cc2ccc3nc(Nc4cc(F)ccc4OC)oc3c2F)[C@@H]1c1ncc(CCC(=O)O)o1 [Example 105, 3-[2-[1-[[7-Fluoro-2-(5-fluoro-2-methoxyphenyl)amino-6-benzoxazolyl]acetyl]-(3S)-ethoxy-(2S)-pyrrolidinyl]-5-oxazolyl]propionic acid]	7.96
CCO[C@H]1CCN(C(=O)Cc2ccc3nc(Nc4ccccc4OC)oc3c2)[C@@H]1c1ncc(CCC(=O)O)o1 [Example 106, 3-[2-[1-[[2-(2-Methoxyphenyl)amino-6-benzoxazolyl]acetyl]-(3S)-ethoxy-(2S)-pyrrolidinyl]-5-oxazolyl]propionic acid]	7.68
